The record followed here is patent publication US20130015204A1, “SINGLE-USE CONTAINERS AND USES THEREOF” (priority 2009, published 2013).

Entries after “also recorded” stand apart in the source; their conditions may differ.

Data set [1] is described as follows: Heat stability studies: HPLC peak area change after heating, hot water or hot coffee. The data set is classed as physicochemical. The settings on record: for Effect of heating solutions on vitamin concentration: heating to either 80° C. or 100° C. for 15 minutes; for % Deviation: vs control; for Effect of dilution with hot water and coffee on vitamin concentration: dilution with hot water or hot coffee, 80° C. or 100° C.; for Vitamin degradation, Water 80° C.: diluted with hot water 80° C.; for Vitamin degradation, Water 100° C.: diluted with hot water 100° C. The method, then:
Vitamins were divided into two groups, depending on their solubility. “High concentration” vitamins were sufficiently soluble to be detected by the. HPLC analysis after 1/250 dilution. “Low concentration” vitamins were not sufficiently soluble and could not be detected after 1/250 dilution and therefore a different procedure was adopted for these compounds as described below.
High concentration vitamin (B1, B3, B5, B6) solutions
Solutions were prepared immediately before use in duplicate, using four different methods, described below: a. Dilute 1 mL of each standard solution to 250 mL with Milli-Q water at room temperature (control sample) […]
b. […] Then take a 1 mL sample from each tube and dilute to 250 mL with Milli-Q water at room temperature. c. Dilute 1 mL of each solution to 250 mL with hot water (80° C. or 100° C.). Leave for 15 minutes, then take a sample and cool immediately to room temperature. d. Dilute 1 mL of each solution to 250 mL with hot coffee (80° C. or 100° C.). Leave for 15 minutes, then take a sample and cool immediately to room temperature.
Low Concentration Vitamin (B2, B7, B9, B12) Solutions
Standard solutions were freshly prepared with Milli-Q water as described above. The test solutions below were then immediately prepared in duplicate: a. Use undiluted (control sample)
HPLC conditions were as described above.
(§1) The percentage change in individual vitamin concentrations relative to the control sample was calculated as: 100×(Atest−Acontrol)/Acontrol, where Atest and Acontrol are peak area ratios (analyte/intemal standard) for the test and control solutions respectively.
All statistical analyses were performed with SPSS 16.

The nature of data set [2]: Long term storage stability studies: HPLC, solutions stored at RT and 4° C. for up to 4 months. Particulars: for Time to achieve significant falls at 4° C.: aqueous solution stored at 4° C.; for Time to achieve significant falls at RT: aqueous solution stored at RT; for Vitamin degradation, Storage 4° C. / Vitamin degradation, Storage RT: greatest percentage change over the 4 month testing period, † non-significant, * significant, ‡ transient at 2 weeks; for Long term storage stability of vitamin solution: stored at RT or 4° C., 4 month period. Here is the method:
Heat was applied by different methods, including placing the solution in a test tube in a bath of hot water (80° C. or 100° C.) for 15 minutes, or by mixing a concentrated solution with hot water or hot coffee (80° C. or 100° C. for both) for an equivalent time. Long term stability studies were carried out by storing individual vitamin solutions at room temperature and at 4° C. for up to 4 months and sampling these solutions at various intervals. Degradation was assessed by the change in peak area of the HPLC peak specific to each particular compound.
Vitamin solutions were prepared as for the Heat Stability Studies.
Replicate aliquots of these solutions were placed in four 15 mL Falcon tubes. Two of these tubes were stored on a shelf at room temperature (RT) in the laboratory and two in the cold room (4° C.).
At 0, 0.5, 1, 1.5, 2, 3.5, and 4 months, samples were taken from each vial for
HPLC analysis. The high concentration vitamin samples (vitamins BI, B3, B5, and B6) were diluted to 1:250 with Milli-Q water before injection and the low concentration vitamin samples (vitamins B2, B7, B9, and B12) were injected undiluted.
Samples from each of the duplicate solutions described above were injected onto the HPLC in duplicate. HPLC conditions were as described above.
Duplicate injections of the two samples were made and the mean of the four results was reported.
as §1
For the heat stability studies, statistical analysis was performed by Students t-test. For the storage stability studies, statistical analysis was performed by univariate ANOVA (General Linear Model). All statistical analyses were performed with SPSS 16.

Where [3] appears, read: up to 4 months, — = no significant fall.
Where [4] appears, read: high concentration vitamin solution, matrix coffee: diluted 1/250 with hot coffee 80° C., 15 minutes.
[5] abbreviates: high concentration vitamin solution, matrix coffee: diluted 1/250 with hot coffee 100° C., 15 minutes.
The mark [6] stands for this setting: high concentration vitamin solution, matrix heated: tube in hot water 80° C., 15 minutes.
Setting [7] is: high concentration vitamin solution, matrix heated: tube in hot water 100° C., 15 minutes.
The mark [8] stands for this setting: high concentration vitamin solution, matrix hot water: diluted 1/250 with hot water 80° C., 15 minutes.
Setting [9] is: high concentration vitamin solution, matrix hot water: diluted 1/250 with hot water 100° C., 15 minutes.

`Cc1cc2nc3c(=O)[nH]c(=O)nc-3n(C[C@H](O)[C@H](O)[C@H](O)CO)c2cc1C` [Vitamin B2, riboflavin]: the “Effect of heating solutions on vitamin concentration” value (“Effect of heating solutions” for short) in data set [1] is reported as “not significantly affected”. The “% Deviation” value in data set [1] (low concentration vitamin solution, undiluted, heated to 80° C., 15 minutes) was 1.5%. Moreover, the “% Deviation” value in data set [1] (low concentration vitamin solution, undiluted, heated to 100° C., 15 minutes) was 2.85%. For the same molecule, in data set [2] (setting [3]), the “Time to achieve significant falls at 4° C.” value was found to be 2 weeks and the “Time to achieve significant falls at RT” value was 2 weeks. Also, in data set [2], the “Vitamin degradation, Storage 4° C.” value is given as −33.6% *; the “Vitamin degradation, Storage RT” value is listed as −24.7% *; the “Long term storage stability of vitamin solution” value was “varying levels of degradation; also recorded: little further degradation; also recorded: Significant degradation”. The “Degradation after 2 weeks at 4° C.” value in data set [2] (storage at 4° C., 2 weeks) is 33.6%. Also, in data set [2] (storage at RT and 4° C.), the “Comment: Falls sustained to” value came out at 4 months. Also, the “Degradation after 2 weeks at RT” value in data set [2] (storage at RT, 2 weeks) is 24.7%.

On to `NC(=O)c1cccnc1` [Vitamin B3, niacinamide], for which the “Effect of dilution with hot water and coffee on vitamin concentration” value in data set [1] is “Statistically significant reductions”. Besides, the “Effect of heating solutions” value in data set [1] was “not affected”. The “% Deviation” value in data set [1] (setting [4]) is given as −3.72%; in data set [1] (setting [5]), −3.62%; in data set [1] (setting [6]), −0.24%; in data set [1] (setting [7]), −0.86%; in data set [1] (setting [8]), 0.33%; in data set [1] (setting [9]), 0.4%. Further, in data set [1] (summary, 15 minutes), the “Vitamin degradation, Water 80° C.” value is on record as “†† (non-significant reductions in vitamin concentrations of <2% in response to heat treatment)”. In addition, in data set [1] (summary, 15 minutes), the “Vitamin degradation, Water 100° C.” value is on record as “†† (non-significant reductions in vitamin concentrations of <2% in response to heat treatment)”. Besides, the “Vitamin degradation, Heat 80° C.” value in data set [1] (summary, solution heated 80° C., 15 minutes) was “†† (non-significant reductions in vitamin concentrations of <2% in response to heat treatment)”. For the same molecule, in data set [1] (summary, solution heated 100° C., 15 minutes), the “Vitamin degradation, Heat 100° C.” value is listed as “†† (non-significant reductions in vitamin concentrations of <2% in response to heat treatment)”. In addition, the “Vitamin degradation, Storage 4° C.” value in data set [2] was “† −1.1%”. The “Vitamin degradation, Storage RT” value in data set [2] is “† −1.8%”. In data set [2] (storage at RT and 4° C. for up to 4 months), the “Comment (long term storage stability)” value is given as “Stable for 4 months”. For the same molecule, the “Long term storage stability of vitamin solution” value in data set [2] was “stable; also recorded: no statistically significant degradation”.

For calcium (+)-pantothenate [Vitamin B5], the “Effect of dilution with hot water and coffee on vitamin concentration” value in data set [1] is given as “unaffected”. Moreover, the “Effect of heating solutions” value in data set [1] is reported as “Statistically significant reductions”. For the same molecule, the “% Deviation” value is 1.78% in data set [1] (setting [4]); 0.31% in data set [1] (setting [5]); −2.78% in data set [1] (setting [6]); −2.27% in data set [1] (setting [7]); −0.77% in data set [1] (setting [8]); −1.15% in data set [1] (setting [9]). For the same molecule, the “Vitamin degradation, Coffee 80° C.” value in data set [1] (summary, diluted with hot coffee 80° C., 15 minutes) is recorded as “†† (non-significant reductions in vitamin concentrations of <2% in response to heat treatment)”. For the same molecule, in data set [1] (summary, diluted with hot coffee 100° C., 15 minutes), the “Vitamin degradation, Coffee 100° C.” value is listed as “†† (non-significant reductions in vitamin concentrations of <2% in response to heat treatment)”. Besides, the “Vitamin degradation, Water 80° C.” value in data set [1] (summary, 15 minutes) was “†† (non-significant reductions in vitamin concentrations of <2% in response to heat treatment)”. Further, the “Vitamin degradation, Water 100° C.” value in data set [1] (summary, 15 minutes) is given as “†† (non-significant reductions in vitamin concentrations of <2% in response to heat treatment)”. Moreover, the “Time to achieve significant falls at 4° C.” value in data set [2] (setting [3]) is listed as 2 weeks. Further, the “Time to achieve significant falls at RT” value in data set [2] (up to 4 months) turned out to be 1.5 months. Further, the “Vitamin degradation, Storage 4° C.” value in data set [2] is −3.9% *. For the same molecule, in data set [2], the “Vitamin degradation, Storage RT” value was −3.3% *. Besides, the “Comment: Falls sustained to” value in data set [2] (storage at RT and 4° C.) is listed as 4 months. The “Comment: size of falls at all times” value in data set [2] (storage at RT and 4° C., up to 4 months) was less than 5%. Besides, in data set [2] (storage at RT or 4° C., entire 4 month test period), the “Degradation at any time for either temperature” value was “less than 4%”. In data set [2], the “Long term storage stability of vitamin solution” value is “varying levels of degradation; also recorded: significant degradation”.
